Measured values as given in patent US20080214471A1, “Method for inhibition of viral infection” (priority 1992, published 2008).

Key:
[1] = tested on: HDV virions; experiment: In vivo treatment of HDV in HBV-transgenic mice, serum HDV virions by RT-PCR; conditions: 50 mg/kg/day IP for one week
[2] = tested on: Huh-7 cells; experiment: Standard XTT assay (overall cell metabolism); assay type: cell-based; conditions: at a concentration that effectively inhibits HDV virion production
Source text: (§1) FIG. 8 illustrates that FT1-277 inhibits production of HDV virions. Huh-7 cells were co-transfected with HDV and HBV encoding plasmids to establish production of HDV virions, as described in the text, and grown in the presence of the indicated concentrations of FTI-277. HDV genome replication in the cells, and the amount of HDV genome-containing virions released into the supernatants, were monitored by northern blot analysis with a probe for HDV genomic RNA (left panel). The results were quantitated with a phosphoimager and the amount of virions produced at each concentration of FTI-277, expressed as a percentage of the no drug control, was plotted (purple bars, right panel). Also plotted are the results of assays for cellular metabolism (XTT assay, yellow bars), and general protein synthesis and secretion (HBV surface antigen released into the media supernatants, blue bars).
(§2) FTI-277, a prenylation inhibitor, was tested for its ability to inhibit HDV virion production. […] Non-specific toxicity was assessed by free HBV surface antigen assay, which assesses effects on general protein synthesis and secretion, and a standard XTT assay, which measures overall cell metabolism.

[3] = tested on: HDV virions; experiment: Inhibition of HDV virion production in co-transfected Huh-7 cells (northern blot for HDV genomic RNA); assay type: cell-based, hepatitis delta virus (HDV); conditions: Huh-7 cells co-transfected with HDV and HBV plasmids
Source text: as §1
Completely infectious HDV particles were produced using the system disclosed in Sureau et al., J. Virol., 66:1241-5 (1992). […]
as §2

[4] = Serum alanine aminotransferase (ALT) assay for non-specific toxicity; conditions: HBV-transgenic mice, 50 mg/kg/day IP for one week, on average
[5] = tested on: Huh-7 cells; experiment: Free HBV surface antigen assay (general protein synthesis and secretion); assay type: cell-based; conditions: at a concentration that effectively inhibits HDV virion production
Source text: as §1, §2

Structure (SMILES): COC(=O)[C@H](CCSC)NC(=O)c1ccc(NC[C@@H](N)CS)cc1-c1ccccc1 [FTI-277]
- production and release of HDV virions into the serum [1]: completely eliminated
- overall cell metabolism (XTT assay) [2]: essentially does not affect
- HDV virion production ([3]; micromolar concentration): no detectable HDV virions produced
- HDV virion production ([3]; mid-nanomolar concentration): dramatically inhibited
- level of ALT compared with the placebo [4]: same level of ALT as the placebo
- general protein synthesis and secretion (free HBV surface antigen released into media) [5]: essentially does not affect
